From PMC11963566, “A phase I, single-center, randomized, open-label, three-period crossover study to evaluate the drug–drug interaction between ZSP1273 and oseltamivir in healthy Chinese subjects” (Antimicrobial Agents and Chemotherapy, 2025)
Where two headings read alike, the source gives them in different places.

Legend:
[1] = for AUC0-t,ss / AUC0-τ,ss / AUC0-∞,ss / CLss/F / Cmax,ss / Vz/F / t1/2,ss / λz / Ctrough: arithmetic mean ± SD; for Tmax,ss: median (minimum, maximum)
[2] = cited from earlier work
[3] = cited from earlier work; remark: listed apart in the source
clinical = settings: human
[4] = doses up to 1,200 mg; cited from earlier work
[5] = Safety assessment: adverse events (CTCAE 5.0, MedDRA 23.1) in healthy subjects; assay type: in vivo, human
Protocol: Safety assessment was conducted from the first administration of the investigational drug until the end of the trial. Safety indicators included adverse events (AEs), serious adverse events (SAEs), clinical laboratory tests (hematology, biochemistry, and urinalysis), vital signs, physical examination, and 12-lead electrocardiogram.
The severity of AE was assessed according to the CTCAE 5.0 standard and includes grades 1 to 5. Based on the criteria for determining causality between drugs and adverse events, the relationship was classified into five levels: definitely related, probably related, possibly related, probably not related, definitely not related. Among them, definitely related, probably related, and possibly related are defined as drug-related AEs.
Adverse events were coded using Med DRA 23.1 Chinese ([30]) and analyzed based on system organ class (SOC) and preferred term (PT). Adverse events during the treatment period, drug-related adverse events, and serious adverse events were described by frequency, number of cases (n), and incidence rate (%) according to SOC, PT, and the highest severity classification.

influenza A (2009 H1N1) = settings: compared with oseltamivir or pimodivir; cited from earlier work
influenza A = settings: adult patients, especially 600 mg once per day; cited from earlier work
[6] = all subjects, no-effect boundary 80%–125%
[7] = co-administration ZSP1273 600 mg QD + oseltamivir 75 mg BID, oral, 5 days, plasma, day 5
[8] = co-administration ZSP1273 + oseltamivir, plasma, day 5
[9] = co-administration versus monotherapy analysis
[10] = monotherapy (ZSP1273 600 mg QD or oseltamivir 75 mg BID, oral, 5 days), plasma, day 5
[11] = subjects with AUC_%Extrap >20.0% or Rsq <0.800 excluded
[12] = SOC Gastrointestinal disorders, probably related
[13] = SOC General disorders and administration site conditions, possibly related
[14] = SOC Infections and infestations, probably not related
[15] = SOC Investigations, possibly related
[16] = SOC Investigations, probably not related
[17] = SOC Skin and subcutaneous tissue disorders, possibly related
[18] = healthy subjects, 5 days dosing

## CCC(CC)O[C@@H]1C=C(C(=O)O)C[C@H](N)[C@H]1NC(C)=O [Oseltamivir carboxylate, oseltamivir carboxylate]
[1]; [6]
  AUC0-∞,ss, geometric mean ratio co-administration/monotherapy: 87.1%
[1]; human, in vivo
  AUC0-t,ss, geometric mean ratio co-administration/monotherapy: 86.7%
  AUC0-τ,ss, geometric mean ratio co-administration/monotherapy: 83.3%
  AUC0-∞,ss, intra-individual coefficient of variation: 8.4%
  Cmax,ss, geometric mean ratio co-administration/monotherapy: 80.4%
[2]
  fraction excreted by the kidneys: more than 99%
[3]
  plasma protein binding rate: approximately 3%
clinical; in vivo, AUC0-t,ss, geometric mean
  AUC(0-t): 5080 ng·h/mL
clinical; in vivo, AUC0-τ,ss, geometric mean
  AUC: 3320 ng·h/mL
clinical; in vivo, AUC0-∞,ss, geometric mean
  AUC(0-inf): 5170 ng·h/mL
clinical; in vivo, Cmax,ss, geometric mean
  Cmax: 393 ng/mL
clinical; in vivo, po, Tmax,ss
  Tmax: 4 h
clinical; in vivo, po, t1/2,ss
  half-life: 10.3 ± 1.6 h
clinical; plasma, po, 75 mg
  k el: 1.92e-05 s⁻¹

## O=C(O)[C@H]1C2CCC(CC2)[C@@H]1Nc1nc(-c2n[nH]c3ncc(F)cc23)nc(C2CC2)c1F [ZSP1273]
[1]; all subjects
  AUC0-∞,ss, intra-individual coefficient of variation: 23.4%
[1]; [6]
  AUC0-∞,ss, geometric mean ratio co-administration/monotherapy: 91.8%
[1]; [7]
  AUC0-t,ss: 14,939.0 ± 6,027.0 (40.3%) h*ng/mL
  AUC0-τ,ss: 13,656.5 ± 4,758.0 (34.8%) h*ng/mL
  AUC0-∞,ss: 15,865.8 ± 6,635.4 (41.8%) h*ng/mL
  CLss/F: 48.6 ± 15.3 (31.4%) L/h
  Cmax,ss: 6,270.0 ± 3,369.7 (53.7%) ng/mL
  Vz/F: 923.8 ± 659.5 (71.4%) L
  t1/2,ss: 14.0 ± 10.3 (73.5%) h
  λz: 0.070 ± 0.041 (58.7%) 1 /h
  Tmax,ss: 1.50 (0.25, 4.00) h
[1]; co-administration ZSP1273 600 mg QD + oseltamivir 75 mg BID, oral, 5 days, plasma
  Ctrough: 77.7 ± 49.7 (64.0%) ng/mL
[1]; [8]
  AUC0-t,ss, geometric mean: 13,926.7 h*ng/mL
  AUC0-τ,ss, geometric mean: 12,964.7 h*ng/mL
  Cmax,ss, geometric mean: 5,466.0 ng/mL
[1]; co-administration ZSP1273 + oseltamivir, plasma, day 5, all subjects
  AUC0-∞,ss, geometric mean: 14,749.3 h*ng/mL
[1]; [9]
  AUC0-t,ss, intra-individual coefficient of variation: 19.9%
  AUC0-τ,ss, intra-individual coefficient of variation: 18.6%
  Cmax,ss, intra-individual coefficient of variation: 49.2%
[1]; co-administration, subjects with AUC_%Extrap >20.0% or Rsq <0.800 excluded
  AUC0-∞,ss, geometric mean: 14,219.8^b h*ng/mL
[1]; human, in vivo
  AUC0-t,ss, geometric mean ratio co-administration/monotherapy: 92.8%
  AUC0-τ,ss, geometric mean ratio co-administration/monotherapy: 96.3%
  Cmax,ss, geometric mean ratio co-administration/monotherapy: 99.9%
[1]; [10]
  AUC0-t,ss: 16,529.6 ± 7,808.2 (47.2%) h*ng/mL
  AUC0-τ,ss: 14,487.1 ± 5,519.8 (38.1%) h*ng/mL
  AUC0-∞,ss: 18,392.1 ± 12,058.8 (65.6%) h*ng/mL
  CLss/F: 47.4 ± 17.8 (37.5%) L/h
  Vz/F: 1,006.5 ± 1,265.7 (125.8%) L
  t1/2,ss: 17.8 ± 33.6 (189.1%) h
  λz: 0.074 ± 0.046 (62.5%) 1 /h
  Tmax,ss: 0.88 (0.25, 4.01) h
[1]; monotherapy (ZSP1273 600 mg QD or oseltamivir 75 mg BID, oral, 5 days), plasma
  Ctrough: 86.3 ± 77.4 (89.6%) ng/mL
[1]; monotherapy (ZSP1273 tablets 600 mg QD or oseltamivir capsules 75 mg BID, oral, 5 days), plasma, day 5
  Cmax,ss: 6,421.7 ± 3,660.6 (57.0%) ng/mL
[1]; monotherapy, plasma, day 5
  AUC0-t,ss, geometric mean: 15,031.4 h*ng/mL
  AUC0-τ,ss, geometric mean: 13,543.4 h*ng/mL
  Cmax,ss, geometric mean: 5,517.1 ng/mL
[1]; monotherapy, plasma, day 5, all subjects
  AUC0-∞,ss, geometric mean: 16,036.9 h*ng/mL
[1]; monotherapy, subjects with AUC_%Extrap >20.0% or Rsq <0.800 excluded
  AUC0-∞,ss, geometric mean: 15,576.5^a h*ng/mL
[1]; [11]
  AUC0-∞,ss, geometric mean ratio co-administration/monotherapy: 94.5%
  AUC0-∞,ss, intra-individual coefficient of variation: 18.8%
[3]; in humans, not measured in this study, no reference given
  plasma protein binding rate: greater than 98.9%
[4]
  safety in healthy volunteers: no apparent safety concerns were noticed
[5]; AE by system organ class
  Gastrointestinal disorders (SOC): Cases (%): 5 (13.9) Cases (%)
  Gastrointestinal disorders (SOC): Occurrences: 5
  General disorders and administration site conditions (SOC): Cases (%): 0 Cases (%)
  General disorders and administration site conditions (SOC): Occurrences: 0
  Infections and infestations (SOC): Cases (%): 0 Cases (%)
  Infections and infestations (SOC): Occurrences: 0
  Investigations (SOC): Cases (%): 8 (22.2) Cases (%)
  Investigations (SOC): Occurrences: 18
  Skin and subcutaneous tissue disorders (SOC): Cases (%): 1 (2.8) Cases (%)
  Skin and subcutaneous tissue disorders (SOC): Occurrences: 1
[5]; [12]
  Diarrhea: Cases (%): 5 (13.9) Cases (%)
  Diarrhea: Occurrences: 5
[5]; [13]
  Fever: Cases (%): 0 Cases (%)
  Fever: Occurrences: 0
[5]; [14]
  Upper respiratory tract infection (URTI): Cases (%): 0 Cases (%)
  Upper respiratory tract infection (URTI): Occurrences: 0
[5]; [15]
  Decreased blood triglycerides: Cases (%): 0 Cases (%)
  Decreased blood triglycerides: Occurrences: 0
  Decreased high-density lipoprotein (HDL): Cases (%): 1 (2.8) Cases (%)
  Decreased high-density lipoprotein (HDL): Occurrences: 1
  Decreased neutrophil count: Cases (%): 0 Cases (%)
  Decreased neutrophil count: Occurrences: 0
  Increased blood cholesterol: Cases (%): 2 (5.6) Cases (%)
  Increased blood cholesterol: Occurrences: 2
  Increased blood creatinine: Cases (%): 3 (8.3) Cases (%)
  Increased blood creatinine: Occurrences: 3
  Increased blood triglycerides: Cases (%): 4 (11.1) Cases (%)
  Increased blood triglycerides: Occurrences: 4
  Increased blood uric acid: Cases (%): 2 (5.6) Cases (%)
  Increased blood uric acid: Occurrences: 2
  Increased gamma-glutamyl transferase (GGT): Cases (%): 1 (2.8) Cases (%)
  Increased gamma-glutamyl transferase (GGT): Occurrences: 1
  Increased lipase: Cases (%): 1 (2.8) Cases (%)
  Increased lipase: Occurrences: 1
  Increased low-density lipoprotein (LDL): Cases (%): 2 (5.6) Cases (%)
  Increased low-density lipoprotein (LDL): Occurrences: 2
[5]; [16]
  Crystals present in urine: Cases (%): 0 Cases (%)
  Crystals present in urine: Occurrences: 0
  Decreased hemoglobin: Cases (%): 2 (5.6) Cases (%)
  Decreased hemoglobin: Occurrences: 2
  Increased urine specific gravity: Cases (%): 0 Cases (%)
  Increased urine specific gravity: Occurrences: 0
  Nitrites present in urine: Cases (%): 0 Cases (%)
  Nitrites present in urine: Occurrences: 0
  Positive urine occult blood: Cases (%): 0 Cases (%)
  Positive urine occult blood: Occurrences: 0
  Protein detected in urine: Cases (%): 0 Cases (%)
  Protein detected in urine: Occurrences: 0
[5]; [17]
  Acneiform dermatitis: Cases (%): 0 Cases (%)
  Acneiform dermatitis: Occurrences: 0
  Maculopapular rash: Cases (%): 1 (2.8) Cases (%)
  Maculopapular rash: Occurrences: 1
[5]; drug-related adverse event
  diarrhea, incidence: 13.9%
  increased blood triglycerides, incidence: 11.1%
[5]; healthy subjects
  subjects with drug-related adverse events, incidence: 30.6%
[5]; [18]
  At least one treatment-emergent adverse event (TEAE): Cases (%): 12 (33.3) Cases (%)
  At least one treatment-emergent adverse event (TEAE): Occurrences: 24
  At least one treatment-emergent adverse event related to drugs: Cases (%): 11 (30.6) Cases (%)
  At least one treatment-emergent adverse event related to drugs: Occurrences: 22
Influenza A (2009 H1N1)
  pulmonary viral loads and mortality: effectively reduced pulmonary viral loads and mortality
Influenza A
  efficacy versus placebo: higher efficacy than placebo in ameliorating influenza symptoms and lowering the viral load
